{"source": "patent US20070031367A1", "about": "“Composition and method for neck skin firming” (priority 2004, published 2007)", "origin": "cited, not measured here", "data": [{"molecule": "COc1cc(CNC(=O)CCCC/C=C/C(C)C)ccc1O", "note": "[Capsaicin, N-canillyl-8-methyl-6-(E)-noneamide]", "values": [{"measurement": "Solubility in fats, oils and alcohol", "setting": "fats, oils and alcohol", "value": "very soluble"}, {"measurement": "Solubility in water", "setting": "water", "value": "sparingly soluble"}]}]}
